This passage reports Activity results from ChEMBL document CHEMBL1153701, “Synthesis and evaluation of antiallodynic and anticonvulsant activity of novel amide and urea derivatives of valproic acid analogues” (2009).

Holding throughout (format): functional, organism-based
In test [1] the test system is Mus musculus. The experiment in a line: Antiepileptic activity in CF1 mouse assessed as inhibition of maximal electroshock-induced seizures at 30 mg/kg, ip after 0.5 hrs. Further details: dose 30 mg/kg. Background: In the maximal electroshock model the usual endpoint is tonic extension of the hind limbs.
Test [2] has as its system Mus musculus. The experiment in a line: Antiepileptic activity in CF1 mouse assessed as inhibition of maximal electroshock-induced seizures at 100 mg/kg, ip after 0.5 hrs. Further details: dose 100 mg/kg.
Test [3] deals with Mus musculus. The experiment in a line: Antiepileptic activity in CF1 mouse assessed as inhibition of maximal electroshock-induced seizures at 300 mg/kg, ip after 0.5 hrs. Further details: dose 300 mg/kg.
In test [4] the test system is Mus musculus. Description: Antiepileptic activity in CF1 mouse assessed as inhibition of maximal electroshock-induced seizures at 30 mg/kg, ip after 4 hrs. Further details: dose 30 mg/kg.
The subject of test [5] is Mus musculus. The experiment in a line: Antiepileptic activity in CF1 mouse assessed as inhibition of maximal electroshock-induced seizures at 100 mg/kg, ip after 4 hrs. Further details: dose 100 mg/kg.
In test [6] the test system is Mus musculus. The experiment in a line: Antiepileptic activity in CF1 mouse assessed as inhibition of maximal electroshock-induced seizures at 300 mg/kg, ip after 4 hrs. Further details: dose 300 mg/kg.
Test [7] has as its system Mus musculus. The experiment in a line: Antiepileptic activity in CF1 mouse assessed as inhibition of subcutaneous pentylenetetrazole-induced seizures at 30 mg/kg, ip after 0.5 hrs. Further details: dose 30 mg/kg.
In test [8] the test system is Mus musculus. Description: Antiepileptic activity in CF1 mouse assessed as inhibition of subcutaneous pentylenetetrazole-induced seizures at 100 mg/kg, ip after 0.5 hrs. Further details: dose 100 mg/kg.
Test [9] deals with Mus musculus. Description: Antiepileptic activity in CF1 mouse assessed as inhibition of subcutaneous pentylenetetrazole-induced seizures at 300 mg/kg, ip after 0.5 hrs. Further details: dose 300 mg/kg.
Test [10] has as its system Mus musculus. The experiment in a line: Antiepileptic activity in CF1 mouse assessed as inhibition of subcutaneous pentylenetetrazole-induced seizures at 30 mg/kg, ip after 4 hrs. Further details: dose 30 mg/kg.
Test [11] relates to Mus musculus. Description: Antiepileptic activity in CF1 mouse assessed as inhibition of subcutaneous pentylenetetrazole-induced seizures at 100 mg/kg, ip after 4 hrs. Further details: dose 100 mg/kg.
Test [12] has as its system Mus musculus. Description: Antiepileptic activity in CF1 mouse assessed as inhibition of subcutaneous pentylenetetrazole-induced seizures at 300 mg/kg, ip after 4 hrs. Further details: dose 300 mg/kg.
The test system of test [13] is Mus musculus. The experiment in a line: Neurotoxicity in CF1 mouse assessed as protection against motor impairment at 30 mg/kg, ip after 0.5 hrs by rotarod test. Further details: dose 30 mg/kg. On the technique in general: In the rotarod test animals must keep their balance on a rotating rod.
For test [14], the system named is Mus musculus. The experiment in a line: Neurotoxicity in CF1 mouse assessed as protection against motor impairment at 100 mg/kg, ip after 0.5 hrs by rotarod test. Further details: dose 100 mg/kg.
In test [15] the test system is Mus musculus. The experiment in a line: Neurotoxicity in CF1 mouse assessed as protection against motor impairment at 300 mg/kg, ip after 0.5 hrs by rotarod test. Further details: dose 300 mg/kg.
Test [16] deals with Mus musculus. The experiment in a line: Neurotoxicity in CF1 mouse assessed as protection against motor impairment at 30 mg/kg, ip after 4 hrs by rotarod test. Further details: dose 30 mg/kg.
Test [17] concerns Mus musculus. Description: Neurotoxicity in CF1 mouse assessed as protection against motor impairment at 100 mg/kg, ip after 4 hrs by rotarod test. Further details: dose 100 mg/kg.
In test [18] the test system is Mus musculus. Description: Neurotoxicity in CF1 mouse assessed as protection against motor impairment at 300 mg/kg, ip after 4 hrs by rotarod test. Further details: dose 300 mg/kg.
Test [19] concerns Rattus norvegicus. Description: Antiallodynic activity in rat assessed as protection against spinal nerve ligation-induced neuropathic pain at 80 mg/kg, ip after 30 mins. Further details: dose 80 mg/kg.
The subject of test [20] is Rattus norvegicus. The experiment in a line: Antiallodynic activity in rat assessed as protection against spinal nerve ligation-induced neuropathic pain at 80 mg/kg, ip after 240 mins. Further details: dose 80 mg/kg.

Activity calls are given as the source filed them. The rule behind the calls is not given here.

Take `CCCC(C(=O)NC)C(C)C` (configuration not stated): the outcome with Mus musculus [1], in the test with Mus musculus [2], in the test on Mus musculus [3], in the test with Mus musculus [4], in the test with Mus musculus [5] and in the test with Mus musculus [6] was inactive. For the same compound, the result with Mus musculus [7], in the test with Mus musculus [8], with Mus musculus [10], with Mus musculus [11], in the test with Mus musculus [12] and in the test on Mus musculus [13] was inactive. The outcome with Mus musculus [14], in the test on Mus musculus [16], in the test with Mus musculus [17], in the test on Mus musculus [18] and with Rattus norvegicus [19] was inactive. Besides, the result in the test on Mus musculus [9] and in the test on Mus musculus [15] was Active.

Take `CC(C)C(C(=O)NC(N)=O)C(C)C`: the outcome in the test with Mus musculus [1], with Mus musculus [4], with Mus musculus [5], in the test with Mus musculus [7], in the test with Mus musculus [10] and in the test on Mus musculus [11] was inactive. Further, the result in the test on Mus musculus [12], in the test with Mus musculus [16] and in the test on Mus musculus [17] was inactive. Further, the outcome in the test on Mus musculus [3], in the test with Mus musculus [6], in the test with Mus musculus [8], in the test on Mus musculus [9], in the test with Mus musculus [15] and with Mus musculus [18] was Active.

In the case of `CC(C)C(C(N)=O)C(C)(C)C` (configuration not stated), the outcome with Mus musculus [1], with Mus musculus [4], in the test with Mus musculus [5], in the test with Mus musculus [7], in the test with Mus musculus [10] and in the test on Mus musculus [11] was inactive. Further, the outcome with Mus musculus [13], with Mus musculus [16] and with Mus musculus [17] was inactive. Also, the result in the test with Mus musculus [3], with Mus musculus [6], in the test on Mus musculus [8], with Mus musculus [9], with Mus musculus [12] and in the test on Mus musculus [15] was Active. Also, the outcome with Mus musculus [18] was Active.

Consider `CCC(C)C(CC)C(=O)NC` (configuration not stated), for which the outcome in the test with Mus musculus [1], with Mus musculus [2], in the test on Mus musculus [3], in the test with Mus musculus [4], with Mus musculus [5] and in the test on Mus musculus [6] was inactive. The outcome in the test on Mus musculus [7], with Mus musculus [8], in the test on Mus musculus [10], in the test on Mus musculus [11], in the test with Mus musculus [12] and in the test on Mus musculus [13] was inactive. For the same compound, the result in the test on Mus musculus [16], in the test on Mus musculus [17], with Mus musculus [18] and with Rattus norvegicus [19] was inactive. Moreover, the result in the test on Mus musculus [9] was Active.

On to `CNC(=O)C(C(C)C)C(C)C`, for which the outcome in the test on Mus musculus [1], in the test on Mus musculus [2], in the test with Mus musculus [4], in the test with Mus musculus [5], with Mus musculus [6] and with Mus musculus [7] was inactive. The outcome in the test with Mus musculus [8], with Mus musculus [10], in the test with Mus musculus [11], in the test on Mus musculus [12], in the test with Mus musculus [13] and with Mus musculus [16] was inactive. Moreover, the result with Mus musculus [17], in the test on Mus musculus [18] and in the test with Rattus norvegicus [19] was inactive. Also, the outcome in the test with Mus musculus [3] was Active.

As for `CC(C)CC(C(N)=O)C(C)C` (configuration not stated), the result in the test on Rattus norvegicus [20], in the test with Mus musculus [1], in the test on Mus musculus [2], with Mus musculus [3], in the test on Mus musculus [4] and in the test with Mus musculus [5] was inactive. For the same compound, the result in the test on Mus musculus [6], with Mus musculus [7], with Mus musculus [8], in the test on Mus musculus [10], in the test with Mus musculus [11] and in the test with Mus musculus [12] was inactive. In addition, the outcome with Mus musculus [13], in the test with Mus musculus [16], in the test on Mus musculus [17] and in the test with Mus musculus [18] was inactive. The result in the test with Mus musculus [9] was Active.

On to `CCCCC(CC)C(=O)NC` (configuration not stated), for which the result with Mus musculus [1], with Mus musculus [4], in the test with Mus musculus [5], with Mus musculus [7], in the test with Mus musculus [8] and in the test with Mus musculus [10] was inactive. Also, the outcome with Mus musculus [11], in the test with Mus musculus [12], in the test on Mus musculus [13], with Mus musculus [14], in the test with Mus musculus [16] and in the test on Mus musculus [17] was inactive. Moreover, the outcome in the test with Mus musculus [18] and in the test with Rattus norvegicus [19] was inactive. In addition, the result in the test on Mus musculus [3], with Mus musculus [6], in the test with Mus musculus [9] and in the test with Mus musculus [15] was Active.

On to `CCC(C(N)=O)C(C)C` (configuration not stated), for which the result in the test with Mus musculus [1], with Mus musculus [2], in the test with Mus musculus [4], in the test with Mus musculus [5], in the test on Mus musculus [6] and in the test on Mus musculus [7] was inactive. Also, the outcome in the test on Mus musculus [8], in the test on Mus musculus [9], in the test on Mus musculus [10], in the test on Mus musculus [11], with Mus musculus [12] and in the test with Mus musculus [13] was inactive. The outcome in the test on Mus musculus [14], in the test with Mus musculus [16], with Mus musculus [17] and in the test on Mus musculus [18] was inactive. Besides, the outcome with Mus musculus [3] was Active.

With `CCCC(CCC)C(=O)NC(N)=O`, the result in the test on Mus musculus [1], with Mus musculus [4], in the test on Mus musculus [5], with Mus musculus [7], in the test on Mus musculus [10] and in the test with Mus musculus [11] was inactive. In addition, the result in the test on Mus musculus [12] and in the test on Mus musculus [17] was inactive. The result with Mus musculus [2], with Mus musculus [3], with Mus musculus [6], in the test on Mus musculus [8] and with Mus musculus [9] was Active.

Turning to `CCC(CC(C)C)C(N)=O` (configuration not stated), the result in the test with Mus musculus [1], with Mus musculus [2], in the test with Mus musculus [4], in the test on Mus musculus [5], in the test on Mus musculus [6] and in the test on Mus musculus [7] was inactive. In addition, the result in the test on Mus musculus [8], in the test on Mus musculus [10], in the test on Mus musculus [11], in the test on Mus musculus [13], in the test with Mus musculus [14] and in the test with Mus musculus [16] was inactive. For the same compound, the outcome in the test with Mus musculus [17], with Mus musculus [18] and with Rattus norvegicus [19] was inactive. Further, the result in the test with Mus musculus [3], in the test on Mus musculus [12] and with Mus musculus [15] was Active.

For `CCCC(CC)C(N)=O` (configuration not stated), the outcome in the test on Mus musculus [1], in the test with Mus musculus [4], in the test on Mus musculus [5], with Mus musculus [7], with Mus musculus [8] and in the test with Mus musculus [10] was inactive. In addition, the outcome with Mus musculus [11], with Mus musculus [12], in the test on Mus musculus [13], with Mus musculus [14], in the test with Mus musculus [16] and in the test with Mus musculus [17] was inactive. Also, the outcome in the test on Mus musculus [18] was inactive. For the same compound, the outcome in the test with Mus musculus [3], in the test on Mus musculus [6] and in the test with Mus musculus [9] was Active.
